This note sets out measurements from ChEMBL document CHEMBL5143548, “Morphinan derivatives with an oxabicyclo[3.2.1]octane structure as dual agonists toward δ and κ opioid receptors” (Bioorg Med Chem, 2022).

Series [1] addresses T1, Kappa-type opioid receptor (Homo sapiens, UniProt P41145). Put plainly: Displacement of [3H]-U-69593 from recombinant human KOR expressed in CHO cell membranes measured after 2 hrs by microbeta scintillation counting method. Also noted: species or system Membrane. (Loss of bound radioactivity is the signal in a displacement assay; it reports binding, not function.)
The target in series [2] is T2, Delta-type opioid receptor (Homo sapiens, UniProt P41143). As to the kind of experiment: Displacement of [3H]-DPDPE from recombinant human DOR expressed in CHO cell membranes measured after 2 hrs by microbeta scintillation counting method. On the set-up: species or system Membrane.
T2 sequence (P41143 whole entry): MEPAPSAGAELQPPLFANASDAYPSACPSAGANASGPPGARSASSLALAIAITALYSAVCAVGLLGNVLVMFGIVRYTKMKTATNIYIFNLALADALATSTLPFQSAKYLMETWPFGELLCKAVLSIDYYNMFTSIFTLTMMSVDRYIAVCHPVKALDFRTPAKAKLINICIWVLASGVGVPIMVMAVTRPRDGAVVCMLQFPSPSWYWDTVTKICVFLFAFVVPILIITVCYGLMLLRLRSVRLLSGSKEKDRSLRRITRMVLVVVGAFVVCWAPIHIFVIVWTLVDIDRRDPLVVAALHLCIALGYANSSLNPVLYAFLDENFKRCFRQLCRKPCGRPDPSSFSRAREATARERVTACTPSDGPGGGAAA
Series [3] concerns the target T2, Delta-type opioid receptor. As to the kind of experiment: Agonist activity at human delta opioid receptor expressed in CHO cell membranes assessed as stimulation of [35S]GTPgammaS binding incubated for 2 hrs by scintillation counting method relative to SNC80. The format is functional. The settings on record: Membrane. (In general: GTPγS resists hydrolysis and so accumulates on activated G proteins.)

In series [4] the target is T3, Mu-type opioid receptor (Homo sapiens, UniProt P35372). Put plainly: Agonist activity at human mu opioid receptor expressed in CHO cell membranes assessed as stimulation of [35S]GTPgammaS binding incubated for 2 hrs by scintillation counting method. Also noted: species or system Membrane.
T3 sequence (P35372 whole entry): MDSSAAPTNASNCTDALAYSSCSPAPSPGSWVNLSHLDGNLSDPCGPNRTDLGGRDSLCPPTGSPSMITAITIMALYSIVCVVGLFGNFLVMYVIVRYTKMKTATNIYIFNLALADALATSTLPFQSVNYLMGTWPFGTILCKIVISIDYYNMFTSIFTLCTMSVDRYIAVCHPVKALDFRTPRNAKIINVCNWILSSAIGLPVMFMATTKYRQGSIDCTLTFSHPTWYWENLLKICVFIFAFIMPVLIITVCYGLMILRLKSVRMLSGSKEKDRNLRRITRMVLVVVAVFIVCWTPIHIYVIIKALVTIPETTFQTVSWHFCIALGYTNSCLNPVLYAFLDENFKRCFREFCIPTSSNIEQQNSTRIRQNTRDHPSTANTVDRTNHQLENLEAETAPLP
For series [5], the species on record is Homo sapiens. Put plainly: Selectivity ratio of Ki for displacement of [3H]-DPDPE from recombinant human DOR expressed in CHO cell membranes to Ki for displacement of [3H]-U-69593 from recombinant human KOR expressed in CHO cell membranes.
Series [6] deals with T1, Kappa-type opioid receptor. Put plainly: Agonist activity at human kappa opioid receptor expressed in CHO cell membranes assessed as stimulation of [35S]GTPgammaS binding incubated for 2 hrs by scintillation counting method relative to U-69593. The format is functional. Conditions: Membrane.
Series [7] concerns the target T1, Kappa-type opioid receptor. As to the kind of experiment: Agonist activity at human kappa opioid receptor expressed in CHO cell membranes assessed as stimulation of [35S]GTPgammaS binding incubated for 2 hrs by scintillation counting method. It is filed as functional, Membrane.
The target in the next series is mu opioid receptor (MOR) (Homo sapiens, UniProt P35372). Put plainly: Agonist activity at human mu opioid receptor expressed in CHO cell membranes assessed as stimulation of [35S]GTPgammaS binding incubated for 2 hrs by scintillation counting method relative to DAMGO. Also noted: species or system Membrane. Conditions: CHO cell membranes expressing human mu opioid receptor, probe [35S]GTPgammaS.
Sequence of mu opioid receptor (MOR) (P35372 whole entry): as above

The species entered for series [8] is Homo sapiens. Put plainly: Selectivity ratio of Ki for displacement of [3H]-DAMGO from recombinant human MOR expressed in CHO cell membranes to Ki for displacement of [3H]-U-69593 from recombinant human KOR expressed in CHO cell membranes.
The target of series [9] is T3, Mu-type opioid receptor. As to the kind of experiment: Displacement of [3H]-DAMGO from recombinant human MOR expressed in CHO cell membranes measured after 2 hrs by microbeta scintillation counting method. On the set-up: species or system Membrane.
Series [10] concerns the target T2, Delta-type opioid receptor. Put plainly: Agonist activity at human delta opioid receptor expressed in CHO cell membranes assessed as stimulation of [35S]GTPgammaS binding incubated for 2 hrs by scintillation counting method. It is filed as functional, Membrane.
The target of series [11] is T3, Mu-type opioid receptor. Put plainly: Agonist activity at human mu opioid receptor expressed in CHO cell membranes assessed as stimulation of [35S]GTPgammaS binding at 10 uM incubated for 2 hrs by scintillation counting method relative to DAMGO. On the set-up: species or system Membrane.

T1 sequence (P41145 whole entry): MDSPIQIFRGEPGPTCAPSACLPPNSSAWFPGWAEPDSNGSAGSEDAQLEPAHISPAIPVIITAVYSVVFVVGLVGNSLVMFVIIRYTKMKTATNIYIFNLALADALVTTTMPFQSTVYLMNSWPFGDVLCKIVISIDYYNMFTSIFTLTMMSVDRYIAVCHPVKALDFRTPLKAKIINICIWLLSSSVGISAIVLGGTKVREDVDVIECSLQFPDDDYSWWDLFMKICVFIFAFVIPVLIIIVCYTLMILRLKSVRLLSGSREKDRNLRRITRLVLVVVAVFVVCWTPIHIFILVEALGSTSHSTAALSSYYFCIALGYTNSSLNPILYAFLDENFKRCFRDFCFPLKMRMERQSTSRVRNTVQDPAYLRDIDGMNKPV

The term Ki denotes a measure of affinity in units of concentration, obtained from inhibition or displacement. One may read the Emax as the maximal effect, on the per cent scale that the assay sets. Broadly, the EC50 is the concentration needed to bring the measured effect to its halfway point. `CN(C(=O)c1ccccc1)[C@@H]1C[C@]23CCN(CC4CC4)[C@H](Cc4ccc(O)cc42)[C@]32CC[C@@H]1O2`: the results for the Ki (in series [1]; in series [2]; on Mu-type opioid receptor [9]) were 0.256 nM, 23.2 nM and 1.42 nM, respectively. For the same compound, the Emax in series [3] is 27.7%; in [6], 34.6%. The EC50 on Mu-type opioid receptor [4] came out at 4.7 nM; in [7], 1.59 nM; in series [10] it was 0.171 nM. For the same compound, the results for the Ratio Ki in the series filed under Homo sapiens [5] and in the series filed under Homo sapiens [8] were 90.6 and 5.5, respectively. In addition, at mu opioid receptor (MOR), the Emax at 2 h turned out to be 47.5%.
On to `CN(C(=O)CCc1ccccc1)[C@@H]1C[C@]23CCN(CC4CC4)[C@H](Cc4ccc(O)cc42)[C@]32CC[C@@H]1O2`, for which the Ki stood at 0.332 nM in [1], 20.5 nM in [2] and 1.46 nM on Mu-type opioid receptor [9]. Also, the Emax was 85.2% in [3] (filed as agonist) and 58.5% in series [6] (filed as partial agonist). In addition, the EC50 at Mu-type opioid receptor [4] turned out to be 5.61 nM; in series [7], 9.95 nM; in series [10] it was 21.4 nM. Besides, the Ratio Ki in the series listed under Homo sapiens [5] worked out at 61.7; in the series filed under Homo sapiens [8], 4.4. Besides, on mu opioid receptor (MOR), the Emax at 2 h stood at 33.4%.
As for `O=C(N[C@@H]1C[C@]23CCN(CC4CC4)[C@H](Cc4ccc(O)cc42)[C@]32CC[C@@H]1O2)c1ccccc1`, the Ki is 0.14 nM in [1], 1.67 nM in series [2] and 0.165 nM at Mu-type opioid receptor [9]. Further, the results for the Emax in [3] (filed as agonist) and in [6] (filed as partial agonist) were 106% and 87.7%, respectively. The EC50 at Mu-type opioid receptor [4] was determined as 2.72 nM; in [7], 1.82 nM; in [10] it was 2.86 nM. Besides, the Ratio Ki amounted to 11.9 in the series filed under Homo sapiens [5] and 1.2 in the series listed under Homo sapiens [8]. Moreover, the Emax at 2 h on mu opioid receptor (MOR) is 47.2%.
Regarding `O=C(Cc1ccccc1)N[C@H]1C[C@]23CCN(CC4CC4)[C@H](Cc4ccc(O)cc42)[C@]32CC[C@@H]1O2`, the Ki in [1] is 1.71 nM; in series [2], 4.98 nM; on Mu-type opioid receptor [9], 3.81 nM. Further, the Emax in [3] (filed as agonist) turned out to be 101%; in series [6], 35.8%. The EC50 was determined as 5.37 nM at Mu-type opioid receptor [4], 13.4 nM in series [7] and 3.83 nM in series [10]. The Ratio Ki is 2.9 in the series listed under Homo sapiens [5] and 2.2 in the series filed under Homo sapiens [8]. Besides, the Emax at 2 h on mu opioid receptor (MOR) stood at 8.7%.
For the compound `O=C(CCc1ccccc1)N[C@H]1C[C@]23CCN(CC4CC4)[C@H](Cc4ccc(O)cc42)[C@]32CC[C@@H]1O2`, the Ki in series [1] worked out at 2.36 nM; in [2], 5.14 nM; at Mu-type opioid receptor [9], 1.08 nM. The Emax was found to be 111% in series [3] (filed as agonist) and 50.3% in [6] (filed as partial agonist). Also, the EC50 at Mu-type opioid receptor [4] was 9.35 nM; in [7] it was 6.32 nM; in series [10], 54.7 nM. For the same compound, the Ratio Ki in the series listed under Homo sapiens [5] came out at 2.2; in the series listed under Homo sapiens [8], 0.46. On mu opioid receptor (MOR), the Emax at 2 h was determined as 11.4%.
Turning to `CN(C(=O)Cc1ccccc1)[C@@H]1C[C@]23CCN(CC4CC4)[C@H](Cc4ccc(O)cc42)[C@]32CC[C@@H]1O2`, the results for the Ki (in series [1]; in [2]; at Mu-type opioid receptor [9]) were 0.278 nM, 19.5 nM and 1.74 nM, respectively. The Emax in series [3] turned out to be 39.7%; in [6] (filed as partial agonist) it was 88.6%. Further, the results for the EC50 (at Mu-type opioid receptor [4]; in series [7]; in [10]) were 7.11 nM, 8.44 nM and 43.6 nM, respectively. For the same compound, the Ratio Ki in the series listed under Homo sapiens [5] was 70.1; in the series filed under Homo sapiens [8] it was 6.3. Further, the Emax at 2 h on mu opioid receptor (MOR) was determined as 40.3%.
For `O=C(CCc1ccccc1)N[C@@H]1C[C@]23CCN(CC4CC4)[C@H](Cc4ccc(O)cc42)[C@]32CC[C@@H]1O2`, the Ki in [1] was found to be 0.197 nM; in [2], 5.18 nM; on Mu-type opioid receptor [9], 0.126 nM. Also, the Emax in series [3] (filed as agonist) turned out to be 104%; in [6] (filed as partial agonist), 75.4%. For the same compound, the EC50 at Mu-type opioid receptor [4] turned out to be 12.7 nM; in series [7] it was 5.31 nM; in [10] it was 112 nM. The Ratio Ki in the series filed under Homo sapiens [5] was determined as 26.3; in the series listed under Homo sapiens [8], 0.64. Further, on mu opioid receptor (MOR), the maximal effect (Emax) at 2 h came to 10.2%.
`O=C(N[C@H]1C[C@]23CCN(CC4CC4)[C@H](Cc4ccc(O)cc42)[C@]32CC[C@@H]1O2)c1ccccc1`: the Ki is 10.6 nM in series [1], 5.68 nM in series [2] and 0.564 nM on Mu-type opioid receptor [9]. Further, the values for the Emax in series [3] (filed as agonist) and in [6] were 97.4% and 23.7%, respectively. Moreover, the Ratio Ki in the series listed under Homo sapiens [5] was 0.54; in the series filed under Homo sapiens [8], 0.05. Moreover, the EC50 was 32.4 nM in series [7] and 51.9 nM in series [10]. The Activity on Mu-type opioid receptor [11] is on record as 10.2%.
Turning to `O=C(Cc1ccccc1)N[C@@H]1C[C@]23CCN(CC4CC4)[C@H](Cc4ccc(O)cc42)[C@]32CC[C@@H]1O2`, the Ki amounted to 0.193 nM in series [1], 0.522 nM in [2] and 0.267 nM on Mu-type opioid receptor [9]. The Emax in series [3] (filed as agonist) turned out to be 85.3%; in series [6] (filed as partial agonist), 68.4%. Besides, the EC50 at Mu-type opioid receptor [4] is 9.43 nM; in series [7], 3.11 nM; in [10], 5.96 nM. Also, the results for the Ratio Ki in the series filed under Homo sapiens [5] and in the series filed under Homo sapiens [8] were 2.7 and 1.4, respectively. Further, the Emax at 2 h at mu opioid receptor (MOR) is 28.2%.
